From patent US20090053187A1 (priority 2005, published 2009)
Where “and” joins values, the source holds several entries; their conditions need not be identical. Identical values can stand only once.

What was measured:
[1] = tested on: Bacillus anthracis STI-1; parameters: species or system Mice of CBA line; details: mouse, in vivo
[2] = tested on: STI-1; format: cell-based
[3] = tested on: STI-PRTS; format: cell-based
[4] = tested on: Bacillus anthracis 71/12 (Tsenkovsky vaccine II); parameters: species or system outbred white mice; details: mouse, in vivo

## C[C@H]1c2cccc(O)c2C(=O)C2=C(O)[C@]3(O)C(=O)C(C(N)=O)=C(O)[C@@H](N(C)C)[C@@H]3[C@@H](O)[C@@H]21 [doxycycline]
[1]
  Death of animals among those taken for the experiment: 3/3 and 1/3 and 0/3

## ampicillin
[2]
  Zone of culture growth delay at using discs with antibiotics: 4 mm
[3]
  Zone of culture growth delay at using discs with antibiotics: 0 mm

## lyzozyme
[4]
  Death of animal on day 2: 1
  Death of animal on day 3: 3
  Death of animal on day 6: 0
  Death of animal on day 7: 0
  Number of perished/Number of infected: 4/5
  mortality: 80%

## tetracycline [Tc]
[2]
  Zone of culture growth delay at using discs with antibiotics: 7 mm
[3]
  Zone of culture growth delay at using discs with antibiotics: 0 mm
